From patent US10604739B2, “Cardiomyocyte production” (Cellular Dynamics International, Inc., priority 2009, dated 2020)

Tests used:
Format in all cases: cell-based, human
H9-TGZ cells [1] = experiment: H9-TGZ Growth Factor Titration #2; settings: HGF 0, 20, 50
Protocol: (§1) Aggregate formation and cardiac induction procedures of those iPS cells at different initial densities were performed essentially the same as described in Examples 4 except different concentrations of human HGF (hHGF) and FGF were applied to Aggregate Formation Medium, Aggregate Transition Medium and Cardiac Induction Medium.
While the iPS6.1 optimization was underway, a separate series of experiments was conducted to optimize the growth factor concentrations for the H9-TGZ cells. […] Therefore, the FGF range tested was higher than that in the recent iPS6.1 experiments. This experiment confirmed that optimum cardiomyocyte production requires 100-150 ng/mL FGF with the H9-TGZ cells (FIGS. 31A-C).

iPS6.1 and H9-TGZ cells = experiment: Meta-analysis of paired conditions with and without 50 ng/mL HGF
Protocol: A meta-analysis across these experiments was performed to assess whether the inventors could detect any measurable benefit of including HGF in the induction medium. This analysis reviewed all the available experiments for paired conditions with and without 50 ng/mL HGF. […] This left 14 paired conditions (11 performed in triplicate within an experiment). To aid in this analysis, a process raw material cost model was employed to estimate the cost per million cardiomyocytes under each condition. This model used the most up-to-date raw material cost and process information available at the time (˜Jun. 1, 2009).

iPS6.1 cells = experiment: iPS6.1 Growth Factor Titration #1; settings: HGF 0, 5, 20, 50, 150 ng/mL
Protocol: as §1
Conditions without FGF had virtually no surviving aggregates and no measurable cardiomyocytes (FIGS. 29A-B). On the other hand, all conditions with FGF yielded cardiomyocytes independent of HGF concentration (FIGS. 29A-B).

H9-TGZ cells [2] = experiment: H9-TGZ Growth Factor Titration #2 (repeat); settings: FIGS. 32A-C
Protocol: as §1
Due to the issues with aggregate formation noted above, the H9-TGZ growth factor titration experiment was repeated. […] However, it is important to note that despite the overall poor performance of the cultures, the usual and expected decrease in performance at low FGF level was still discernable (FIGS. 32A-C).

iPS6.1-MRB cells = experiment: iPS-MRB 1 L spinner qualification runs with and without HGF; settings: for CM/L (millions) / Purity (% RFP+): +HGF, 1 L spinner flask
Protocol: IPS-MRB cells were maintained on Matrigel™ in TeSR medium (from Stem Cell Technologies) no later than when they would normally be ready to be passaged. IPS cells were grown in T-150 flasks throughout this example, but can be scaled for starting cells in other culture formats. Five T-150 flasks of iPS cells were harvested: media were aspirated and cells were incubated with 12 mL room temperature TrypLe™ (Invitrogen), a recombinant typsin-like enzyme, at 37° C. for 7 minutes. The cells were then transferred to five 50 ml conical tubes (one tube for each T-150 flask) containing 12 ml DMEM/F12 (GIBCO) with 10% fetal calf serum (FCS) (Chemicon). The cells were then pelleted at 1200 rpm for 5 minutes and supernatant aspirated. The pellet was resuspended in 10 mL aggregate promotion medium (TeSR medium containing 25 μg/ml Gentamicin, 1 μM H1152, and with or without 50 ng/ml human recombinant HGF). The resuspended pellet were combined into a single 250 ml conical tube (allowing volume for later dilution), if necessary. Cells were counted using CEDEX HiRES cell counter and then diluted to 1.0×10^6 cells/mL. Each 500 mL diluted cell stock was dispensed into one 1 L spinner flask (leaving room in spinner flasks for later dilution) and the flasks were placed on magnetic stir platform with a speed of 50 RPM (both side caps were loosed by two full turns to allow gas transfer).
On the next day (Day 1), flasks containing the cells were set in cell culture hood and suspended aggregate allowed to settle to the bottom of the flasks for 30 minutes. The spent media were aspirated using a 2 mL aspirating pipet with approximately 100 mL left in the flasks (if films of cells form on bottom after setting, shake flask back and forth in each direction to break them up before adding medium). Aggregate transition medium (50% TeSR medium, 45% DMEM containing GlutaMax™, 5% ES-qualified FCS, 25 μg/ml Gentamicin, 1 μM H1152, and with or without 50 ng/ml HGF) were added to the flasks using Pipeline machine to bring to the original volume. The flasks were returned to the stirring platform inside a 7% CO2 incubator and the agitator was started to operate at 50±1 RPM (both side caps were loosed by two full turns to allow gas transfer).
On Day 2, flasks containing the cells were set in cell culture hood and suspended aggregate allowed to settle to the bottom of the flasks for 15 minutes. The spent media were aspirated with approximately 100 mL left in the flasks. Aggregate suspension were gently mixed in flasks, and cardiac induction medium (90% TeSR medim, 10% ES-qualified FCS, 25 μg/ml Gentamicin, 50 ng/ml human recombinant bFGF, and with or without 50 ng/ml human recombinant HGF) were added to each flask to 1 L (2× dilution) with Pipeline machine. The flasks were returned to the stirring platform inside a 7% CO2 incubator and the agitator was started to operate at 50±1 RPM (both side caps were loosed by two full turns to allow gas transfer).
On Day 3, flasks containing the cells were set in cell culture hood and suspended aggregate allowed to settle to the bottom of the flasks for 15 minutes. The spent media were aspirated with approximately 100 mL left in the flasks. Spinner flasks were shaken back and forth to break large clumps. Cardiac induction medium were added back to each flask to bring back to the original volume for Days 3-7; cardiac maintenance medium were exchanged instead for Days 8, 10, 12. After every media exchange, the flasks were returned to the stirring platform inside a 7% CO2 incubator and the agitator was started to operate at 50±1 RPM (both side caps were loosed by two full turns to allow gas transfer).
Cell cultures were analyzed on Day 14 by total cell counting per flask at harvest, cTNT or RFP purity at harvest. Aggregate count was also carried on Day 2 and final stage and aggregate pictures were taken.
Three qualification runs were performed to confirm at large scale and with iPS6.1-MRB cells that removal of HGF has no measurable effect. […]

[3] = First iPS 4-corners, head-to-head pairings with purity >1%
[4] = First iPS GF matrix, head-to-head pairings with purity >1%
[5] = H9-TGZ Matrix #2, head-to-head pairings with purity >1%
[6] = H9-TGZ Matrix #2 repeat, head-to-head pairings with purity >1%
[7] = HGF Conc 50 ng/mL, 14 paired conditions
[8] = Second iPS GF matrix, head-to-head pairings with purity >1%
[9] = Total of all experiments, head-to-head pairings with purity >1%

HGF: human recombinant HGF (hepatic growth factor), R&D systems
Trend in process efficiency across different HGF concentrations (H9-TGZ cells [1]): No trend was observed in process efficiency | Fraction with better CM/L @ 50 ng/mL HGF than 0 (iPS6.1 and H9-TGZ cells; [3]): 0/1 | Fraction with better iPS:CM ratio @ 50 ng/mL HGF than 0 (iPS6.1 and H9-TGZ cells; [3]): 0/1 | Fraction with better CM/L @ 50 ng/mL HGF than 0 (iPS6.1 and H9-TGZ cells; [4]): 3/4 | Fraction with better iPS:CM ratio @ 50 ng/mL HGF than 0 (iPS6.1 and H9-TGZ cells; [4]): 3/4 | Fraction with better CM/L @ 50 ng/mL HGF than 0 (iPS6.1 and H9-TGZ cells; [5]): 2/4 | Fraction with better iPS:CM ratio @ 50 ng/mL HGF than 0 (iPS6.1 and H9-TGZ cells; [5]): 2/4 | Fraction with better CM/L @ 50 ng/mL HGF than 0 (iPS6.1 and H9-TGZ cells; [6]): 0/1 | Fraction with better iPS:CM ratio @ 50 ng/mL HGF than 0 (iPS6.1 and H9-TGZ cells; [6]): 0/1 | CM/L, Average (iPS6.1 and H9-TGZ cells; [7]): 49 | CM/L, Best (iPS6.1 and H9-TGZ cells; [7]): 140 | CM/L, Worst (iPS6.1 and H9-TGZ cells; [7]): 1.5 | iPS:CM, Average (iPS6.1 and H9-TGZ cells; [7]): 100 | iPS:CM, Best (iPS6.1 and H9-TGZ cells; [7]): 7 | iPS:CM, Worst (iPS6.1 and H9-TGZ cells; [7]): 712 | Fraction with better CM/L @ 50 ng/mL HGF than 0 (iPS6.1 and H9-TGZ cells; [8]): 2/4 | Fraction with better iPS:CM ratio @ 50 ng/mL HGF than 0 (iPS6.1 and H9-TGZ cells; [8]): 2/4 | Fraction with better CM/L @ 50 ng/mL HGF than 0 (iPS6.1 and H9-TGZ cells; [9]): 7/14 | Fraction with better iPS:CM ratio @ 50 ng/mL HGF than 0 (iPS6.1 and H9-TGZ cells; [9]): 7/14 | Effect of HGF in cardiomyocyte production process (on average) (iPS6.1 and H9-TGZ cells; with vs without 50 ng/mL HGF, 14 paired conditions): no measurable positive or negative effect | Trend in cardiomyocyte yield or iPS:CM ratio across HGF concentrations (iPS6.1 cells): no consistent trend in cardiomyocyte yield or iPS:CM ratio | Trend of culture performance across HGF concentrations (H9-TGZ cells [2]): no observable trend of culture performance | Effect of HGF addition on yields (iPS6.1-MRB cells; "normal" run, 1 L spinner): no effect | CM/L (millions) (iPS6.1-MRB cells; Run #1 (Jun. 6, 2009)): 48.9 millions | Purity (% RFP+) (iPS6.1-MRB cells; Run #1 (Jun. 6, 2009)): 6.6% | CM/L (millions) (iPS6.1-MRB cells; Run #2 (Jun. 10, 2009)): 17.5 millions | Purity (% RFP+) (iPS6.1-MRB cells; Run #2 (Jun. 10, 2009)): 3.7% | CM/L (millions) (iPS6.1-MRB cells; Run #3 (Jun. 14, 2009)): 10.0 millions | Purity (% RFP+) (iPS6.1-MRB cells; Run #3 (Jun. 14, 2009)): 2.6%
